The experiment relates to P388 leukemia ip, CD2F1 mice, survival T/C. The experiment is described as follows: NCI In Vivo Anticancer Drug Screen. Data for tumor model P388 Leukemia (intraperitoneal) in CD2F1 (CDF1) mice. To be noted: endpoint: median survival time, higher = longer survival. The procedure, abridged:
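Mice carrying the transplanted tumor received test compound or vehicle. Survival was recorded in each group, and the value is the treated-group measurement divided by that of the vehicle-treated control group.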

The mark [1] stands for this setting: dose: 12.5 mg/kg/injection, schedule: Q01DX005 (ip), vehicle: saline with Tween-80.
[2] abbreviates: dose: 25.0 mg/kg/injection, schedule: Q01DX005 (ip), vehicle: saline with Tween-80.
Setting [3] is: dose: 50.0 mg/kg/injection, schedule: Q01DX005 (ip), vehicle: saline with Tween-80.
Setting [4] is: dose: 50.0 mg/kg/injection, schedule: Q01DX009 (ip), vehicle: saline with Tween-80.
Setting [5] is: dose: 100.0 mg/kg/injection, schedule: Q01DX009 (ip), vehicle: saline with Tween-80.
The mark [6] stands for this setting: dose: 200.0 mg/kg/injection, schedule: Q01DX009 (ip), vehicle: saline with Tween-80.
Setting [7] is: dose: 60.0 mg/kg/injection, schedule: Q01DX005 (ip), vehicle: saline with Tween-80.
The mark [8] stands for this setting: dose: 120.0 mg/kg/injection, schedule: Q01DX005 (ip), vehicle: saline with Tween-80.
Where [9] appears, read: dose: 100.0 mg/kg/injection, schedule: Q04DX003 (ip), vehicle: saline with Tween-80.
Where [10] appears, read: dose: 200.0 mg/kg/injection, schedule: Q04DX003 (ip), vehicle: saline with Tween-80.
The mark [11] stands for this setting: dose: 25.0 mg/kg/injection, schedule: Q01DX009 (ip), vehicle: saline with Tween-80.
Setting [12] is: dose: 50.0 mg/kg/injection, schedule: Q01DX009 (ip), vehicle: saline.
Where [13] appears, read: dose: 100.0 mg/kg/injection, schedule: Q01DX009 (ip), vehicle: saline.
Setting [14] is: dose: 200.0 mg/kg/injection, schedule: Q01DX009 (ip), vehicle: saline.
The mark [15] stands for this setting: dose: 100.0 mg/kg/injection, schedule: Q01DX005 (ip), vehicle: saline with Tween-80.
[16] abbreviates: dose: 200.0 mg/kg/injection, schedule: Q01DX005 (ip), vehicle: saline with Tween-80.

The structures appear in SMILES notation. “And” between values parts separate entries of the source, which are not always exact repeats. Equal values may be shown once. Toxic doses and inconclusive results are not listed.

In the case of `C(#CC1CO1)CCCC#CC1CO1` (stereo unspecified), the T/C by setting is: under setting [1], 106 % of control; under setting [2], 110 % of control; under setting [3], 107 % of control and 124 % of control.
In the case of `CC(=O)NC(Cc1ccc(F)cc1)C(=O)O` (stereo unspecified), the T/C runs as follows: under setting [4], 101 % of control and 109 % of control; under setting [5], 102 % of control and 109 % of control; under setting [6], 107 % of control and 95 % of control; (dose: 400.0 mg/kg/injection, schedule: Q01DX009 (ip), vehicle: saline with Tween-80) 107 % of control and 113 % of control; (dose: 600.0 mg/kg/injection, schedule: Q01DX009 (ip), vehicle: saline with Tween-80) 112 % of control and 124 % of control.
On to `COC(=O)C(CSCc1ccccc1)NC(=O)CCNC(=O)OCc1ccccc1` (stereo unspecified), for which the T/C is 103 % of control (dose: 25.0 mg/kg/injection, schedule: Q01DX009 (ip), vehicle: other); 103 % of control (dose: 50.0 mg/kg/injection, schedule: Q01DX009 (ip), vehicle: other); 96 % of control (dose: 100.0 mg/kg/injection, schedule: Q01DX009 (ip), vehicle: other); 90 % of control (dose: 200.0 mg/kg/injection, schedule: Q01DX009 (ip), vehicle: other); 97 % of control (dose: 400.0 mg/kg/injection, schedule: Q01DX009 (ip), vehicle: other).
With `CN1CCCc2cc(/C=C\c3ccnc4ccccc34)ccc21`, the T/C is 93 % of control (dose: 25.0 mg/kg/injection, schedule: Q01DX009 (ip), vehicle: Klucel (hydroxypropylcellulose) (HPC)); 104 % of control (dose: 50.0 mg/kg/injection, schedule: Q01DX009 (ip), vehicle: Klucel (hydroxypropylcellulose) (HPC)); 118 % of control (dose: 200.0 mg/kg/injection, schedule: Q01DX009 (ip), vehicle: Klucel (hydroxypropylcellulose) (HPC)).
`N#Cc1ccccc1NC(=O)Nc1ccc(Cl)cc1Cl`: the T/C was 94 % of control (dose: 0.46 mg/kg/injection, schedule: Q01DX005 (ip), vehicle: saline with Tween-80); 97 % of control (dose: 0.93 mg/kg/injection, schedule: Q01DX005 (ip), vehicle: saline with Tween-80); 99 % of control (dose: 1.87 mg/kg/injection, schedule: Q01DX005 (ip), vehicle: saline with Tween-80); 91 % of control and 92 % of control under setting [7]; 88 % of control under setting [8]; 98 % of control (dose: 240.0 mg/kg/injection, schedule: Q01DX005 (ip), vehicle: saline with Tween-80).
Turning to `CCCN(CCC)CCSC(=S)NCCOC`, the T/C by setting is: under setting [9], 100 % of control; under setting [10], 100 % of control.
In the case of `CC(C)COC(=O)NC(C(=O)N(C(=O)NC1CCCCC1)C1CCCCC1)C(C)C` (stereo unspecified), the T/C by setting is: (dose: 50.0 mg/kg/injection, schedule: Q01DX005 (ip), vehicle: Klucel (hydroxypropylcellulose) (HPC)) 100 % of control; (dose: 100.0 mg/kg/injection, schedule: Q01DX005 (ip), vehicle: Klucel (hydroxypropylcellulose) (HPC)) 95 % of control; (dose: 200.0 mg/kg/injection, schedule: Q01DX005 (ip), vehicle: Klucel (hydroxypropylcellulose) (HPC)) 95 % of control.
For the compound `CCOC(=O)/C=C1/Nc2ccc([N+](=O)[O-])cc2NC1=O` (tested in a mixture with another compound), the T/C (dose: 50.0 mg/kg/injection, schedule: Q01DX009 (ip), vehicle: distilled water + Tween-80 + alcohol) was 86 % of control; the T/C (dose: 100.0 mg/kg/injection, schedule: Q01DX009 (ip), vehicle: distilled water + Tween-80 + alcohol) is 94 % of control; the T/C (dose: 200.0 mg/kg/injection, schedule: Q01DX009 (ip), vehicle: distilled water + Tween-80 + alcohol) was 103 % of control.
In the case of `CO[C@H]1/C=C/O[C@@]2(C)Oc3c(C)c(O)c4c(O)c(c(/C=N/N5CCNCC5)c(O)c4c3C2=O)NC(=O)/C(C)=C\C=C\[C@H](C)[C@H](O)[C@@H](C)[C@@H](O)[C@@H](C)C(OC(C)=O)[C@@H]1C` (stereo partly specified), the T/C is 95 % of control under setting [5]; 91 % of control under setting [9]; 104 % of control under setting [6]; 91 % of control under setting [10]; 100 % of control (dose: 400.0 mg/kg/injection, schedule: Q04DX003 (ip), vehicle: saline with Tween-80).
In the case of `COc1cc2c(cc1O)C(O)CCCC2` (stereo unspecified), the T/C by setting is: under setting [4], 107 % of control; under setting [5], 108 % of control; under setting [6], 110 % of control.
On to `CCOC(=O)c1ccc(NC(=O)Nc2nncs2)cc1`, for which the T/C is 114 % of control (dose: 6.25 mg/kg/injection, schedule: Q01DX009 (ip), vehicle: distilled water + Tween-80) and 119 % of control (dose: 12.5 mg/kg/injection, schedule: Q01DX009 (ip), vehicle: distilled water + Tween-80).
In the case of `Oc1c(Br)cc(Br)cc1C1CCCCC1`, the T/C was 110 % of control under setting [11], 119 % of control under setting [4], 107 % of control under setting [5] and 113 % of control under setting [6].
Consider `CC(C)(c1ccccc1)c1ccc(O)cc1`, for which the T/C under setting [11] is 100 % of control, the T/C under setting [4] was 100 % of control, the T/C under setting [5] is 100 % of control and the T/C under setting [9] is 90 % of control.
Turning to `O=C1CCC(c2ccccc2)=NN1`, the T/C under setting [12] is 100 % of control; the T/C under setting [13] is 106 % of control; the T/C under setting [14] is 103 % of control; the T/C (dose: 400.0 mg/kg/injection, schedule: Q01DX009 (ip), vehicle: saline) was 97 % of control.
On to `CSc1nc2nc[nH]c2c(=O)[nH]1`, for which the T/C reads like this: under setting [1], 100 % of control; under setting [2], 100 % of control; under setting [3], 101 % of control and 105 % of control; under setting [15], 101 % of control; under setting [16], 104 % of control.
As for `CC(=N/NC(=S)NCC(C)C)/C(C)=N\Nc1ccc(Cl)cc1`, the T/C reads like this: under setting [12], 97 % of control; under setting [13], 106 % of control; under setting [14], 99 % of control.
`CC(C)(C)C(=O)Oc1c2ccccc2cc2ccccc12`: the T/C by setting is: (dose: 30.0 mg/kg/injection, schedule: Q01DX005 (ip), vehicle: saline with Tween-80) 88 % of control; under setting [7], 88 % of control and 89 % of control; under setting [8], 86 % of control.
Take `NC(N)=NO`: the T/C is 110 % of control (dose: 8.2 mg/kg/injection, schedule: Q01DX009 (ip), vehicle: water); 105 % of control (dose: 12.0 mg/kg/injection, schedule: Q01DX009 (ip), vehicle: water); 155 % of control (dose: 75.0 mg/kg/injection, schedule: Q01DX009 (ip), vehicle: saline); 170 % of control (dose: 150.0 mg/kg/injection, schedule: Q01DX009 (ip), vehicle: saline).
Turning to `CC(=O)ON1C(=O)C=CC1=O`, the T/C was 109 % of control (dose: 0.78 mg/kg/injection, schedule: Q01DX009 (ip), vehicle: water); 101 % of control (dose: 1.56 mg/kg/injection, schedule: Q01DX009 (ip), vehicle: water); 104 % of control and 87 % of control (dose: 3.13 mg/kg/injection, schedule: Q01DX009 (ip), vehicle: water); 104 % of control and 86 % of control (dose: 6.25 mg/kg/injection, schedule: Q01DX009 (ip), vehicle: water); 109 % of control and 90 % of control (dose: 12.5 mg/kg/injection, schedule: Q01DX009 (ip), vehicle: water).
`CC1CCCC(C)N1C(=O)C(Cl)(Cl)Cl` (stereo unspecified): the T/C under setting [3] is 100 % of control, the T/C under setting [15] is 100 % of control and the T/C under setting [16] was 100 % of control.
`Cc1ccc(NC(=O)C(F)(F)F)cc1`: the T/C was 113 % of control under setting [4], 108 % of control under setting [5] and 108 % of control under setting [6].
Take `Clc1ccc(CN2COc3c(cc(Cl)c4cccnc34)C2)cc1`: the T/C reads like this: (dose: 100.0 mg/kg/injection, schedule: Q04DX003 (ip), vehicle: Klucel (hydroxypropylcellulose) (HPC)) 88 % of control; (dose: 200.0 mg/kg/injection, schedule: Q04DX003 (ip), vehicle: Klucel (hydroxypropylcellulose) (HPC)) 91 % of control; (dose: 400.0 mg/kg/injection, schedule: Q04DX003 (ip), vehicle: Klucel (hydroxypropylcellulose) (HPC)) 106 % of control.
